The values that follow come from patent publication US4971992A, “Carbonate derivatives of eseroline” (priority 1989, dated 1990).

As usually defined, the ED50 is the dose that gives a 50% effect, or the effect in half of the subjects.

In the assay the test system is 2-phenyl-1,4-benzoquinone-induced writhing. Kind of assay: 2-phenyl-1,4-benzoquinone-induced writhing test in mice (analgesia). Type of assay: in vivo. Conditions: Mus musculus, read-out: Inhibition of Writhing ED50. The source says: Compounds of the present invention are useful as analgesic agents due to their ability to alleviate pain in mammals. […] Exptl. Biol. Med. 95, 729 (1957)]. The analgesic activity of some of the compounds expressed in terms of the ED50 values for inhibition of writhing are given in TABLE I.
Background: An intraperitoneal irritant provokes the stretching counted in writhing tests.

Like-named read-outs stand apart in the source and are kept apart here.

Take `CN1CC[C@@]2(C)c3cc(OC(=O)Oc4ccc(Cl)cc4)ccc3N(C)[C@@H]12.O=C(O)/C=C/C(=O)O` (relative stereo) [4-Chlorophenyl (3aS-cis)-1,2,3,3a,8,8a-hexahydro-1,3a,8-trimethylpyrrolo [2,3-b]indol-5-yl carbonate fumarate]: the ED50 (sc, subcutaneous) worked out at 0.74 mg/kg.

For `CN1CC[C@@]2(C)c3cc(OC(=O)OC(C)(C)C)cc(Br)c3N(C)[C@@H]12` [(3aS-cis)-7-Bromo-1,2,3,3a,8,8a-hexahydro-1,3a,8-trimethylpyrrolo[2,3-b]indol-5-yl t-butyl carbonate sesquifumarate], the ED50 runs as follows: (oral) 0.4 mg/kg; (sc, subcutaneous) 0.16 mg/kg. `CN1CC[C@@]2(C)c3cc(O)ccc3N(C)[C@@H]12` [eseroline salicylate, reference compound]: the ED50 (sc, subcutaneous) was determined as 0.52 mg/kg.
